This is an account of results in patent US11576897B2, “Therapeutic agent for non-motor symptoms associated with Parkinson's disease” (priority 2017, dated 2023).

The target in one test is human 5-HT2A receptor (Homo sapiens (Human), UniProt P28223). The experiment in a line: biochemical. Format: binding. Conditions: read-out: 5-HT2A receptor binding inhibition constant Ki.
Test [1] deals with human serotonin transporter (SERT) (Homo sapiens (Human), UniProt P31645). The experiment in a line: Human serotonin transporter (SERT) binding test. Particulars: [3H]-citalopram, h-SERT/CHO cell membrane; read-out: h-SERT binding inhibition constant Ki.
The mark [2] stands for this setting: [3H]-ketanserin, human 5-HT2A receptor-expressed CHO cell membrane.

Where two headings read alike, the source gives them in different places.

The term Ki denotes a measure of affinity in units of concentration, obtained from inhibition or displacement. In the case of `CNCc1cc(OCc2ccccc2)n(Cc2ccccc2)n1` [Example 1, 1-[l-benzyl-5-(benzyloxy)-1H-pyrazol-3-yl]-N-methylmethanamine], on human 5-HT2A receptor (setting [2]), the Ki is 5.5 nM.

Turning to `CNCc1cc(OCc2ccccc2)n(CC2CCCCC2)n1` [Example 5, 1-[5-(benzyloxy)-1-(cyclohexylmethyl)-1H-pyrazol-3-yl]-N-methylmethanamine], the Ki at human 5-HT2A receptor came out at 5.9 nM. Turning to `CNCc1cc(OCc2ccccc2F)n(CC2CCCCC2)n1` [Example 20, 1-{1-(cyclohexylmethyl)-5-[(2-fluorobenzyl)oxy]-1H-pyrazol-3-yl}-N-methylmethanamine], the Ki on human 5-HT2A receptor (setting [2]) turned out to be 0.65 nM; in test [1], 1.6 nM.

With `CNCc1cc(OCc2ccc(F)cc2Cl)n(CC2CCCCC2)n1` [Example 30, 1-{5-[(2-chloro-4-fluorobenzyl)oxy]-1-(cyclohexylmethyl)-1H-pyrazol-3-yl}-N-methylmethanamine], the Ki on human 5-HT2A receptor (setting [2]) was 0.52 nM; in test [1], 1.5 nM.

For the molecule `CNCc1cc(OCc2ccc(F)cc2C)n(CC2CCCCC2)n1` [Example 31, 1-{1-(cyclohexylmethyl)-5-[(4-fluoro-2-methylbenzyl)oxy]-1H-pyrazol-3-yl}-N-methylmethanamine], the Ki at human 5-HT2A receptor amounted to 1.4 nM. Take `CNCc1cc(OCc2cc(F)ccc2F)n(CC2CCCCC2)n1` [Example 33, 1-{1-(cyclohexylmethyl)-5-[(2,5-difluorobenzyl)oxy]-1H-pyrazol-3-yl}-N-methylmethanamine]: on human 5-HT2A receptor (setting [2]), the Ki was found to be 0.5 nM. For the molecule `CNCc1cc(OCc2cc(F)ccc2Cl)n(CC2CCCCC2)n1` [Example 37, 1-{5-[(2-chloro-5-fluorobenzyl)oxy]-1-(cyclohexylmethyl)-1H-pyrazol-3-yl}-N-methylmethanamine], the results for the Ki (on human 5-HT2A receptor; in test [1]) were 2.1 nM and 0.89 nM, respectively. With `CNCc1cc(OCc2cc(Cl)ccc2Cl)n(CC2CCCCC2)n1` [Example 38, 1-{1-(cyclohexylmethyl)-5-[(2,5-dichlorobenzyl)oxy]-1H-pyrazol-3-yl}-N-methylmethanamine], the Ki at human 5-HT2A receptor (setting [2]) is 3.2 nM; in test [1] it was 2.4 nM. As for `CNCc1cc(OCc2ccc(F)cc2C)n(CC2CCCCO2)n1` (stereo not shown) [Example 108, 1-{5-[(4-fluoro-2-methylbenzyl)oxy]-1-(tetrahydro-2H-pyran-2-ylmethyl)-1H-pyrazolo-3-yl}-N-methylmethanamine], the Ki at human 5-HT2A receptor (setting [2]) stood at 4.8 nM; in test [1], 1.9 nM.

Regarding `CNCc1cc(OCc2ccccc2)n(CC2CC3CCC2C3)n1` (stereo not shown) [Example 115, 1-[5-(benzyloxy)-1-(bicyclo[2.2.1]hept-2-ylmethyl)-1H-pyrazol-3-yl]-N-methylmethanamine], the Ki at human 5-HT2A receptor (setting [2]) turned out to be 1 nM. In the case of `CNCc1cc(OCc2cc(F)ccc2F)n(CC2CC3CCC2C3)n1` (stereo not shown) [Example 117, 1-{1-(bicyclo[2.2.1]hept-2-ylmethyl)-5-[(2,5-difluorobenzyl)oxy]-1H-pyrazol-3-yl}-N-methylmethanamine], the Ki came out at 0.76 nM at human 5-HT2A receptor and 0.5 nM in test [1].

With `CNCc1cc(OCc2cc(Cl)ccc2F)n(CC2CC3CCC2C3)n1` (stereo not shown) [Example 118, 1-{1-(bicyclo[2.2.1]hept-2-ylmethyl)-5-[(5-chloro-2-fluorobenzyl)oxy]-1H-pyrazol-3-yl}-N-methylmethanamine], the figures for the Ki (on human 5-HT2A receptor (setting [2]); in test [1]) were 0.73 nM and 2 nM, respectively. In the same order, the values of `CNCc1cc(OCc2cc(F)ccc2F)n(CC2CCC(F)(F)CC2)n1` [Example 124, 1-{5-[(2,5-difluorobenzyl)oxy]-1-[(4,4-difluorocyclohexyl)methyl]-1H-pyrazol-3-yl}-N-methylmethanamine] are 1.7 nM and 0.71 nM. On to `CNCc1cc(OCc2cc(F)ccc2F)n(CC2(F)CCCCC2)n1` [Example 127, 1-{5-[(2,5-difluorobenzyl)oxy]-1-[(1-fluorocyclohexyl)methyl]-1H-pyrazol-3-yl}-N-methylmethanamine], for which the Ki in test [1] worked out at 1.3 nM.

Consider `CNCc1cc(OCc2ccc(F)cc2)n(CC2CCCC2)n1` [Example 137, 1-{1-(cyclopentylmethyl)-5-[(4-fluorobenzyl)oxy]-1H-pyrazol-3-yl}-N-methylmethanamine], for which the Ki on human 5-HT2A receptor (setting [2]) came out at 1.3 nM. As for `CNCc1cc(OCc2ccccc2Cl)n(CC2CCCC2)n1` [Example 138, 1-{5-[(2-chlorobenzyl)oxy]-1-(cyclopentylmethyl)-1H-pyrazol-3-yl}-N-methylmethanamine], the Ki at human 5-HT2A receptor (setting [2]) worked out at 11 nM; in test [1], 1.8 nM. Take `CNCc1cc(OCc2ccc(F)cc2F)n(CC2CCCC2)n1` [Example 144, 1-{1-(cyclopentylmethyl)-5-[(2,4-difluorobenzyl)oxy]-1H-pyrazol-3-yl}-N-methylmethanamine]: the Ki at human 5-HT2A receptor was 0.2 nM. On to `CNCc1cc(OCc2cc(Cl)ccc2F)n(CC2CCCC2)n1` [Example 148, 1-{5-[(5-chloro-2-fluorobenzyl)oxy]-1-(cyclopentylmethyl)-1H-pyrazol-3-yl}-N-methylmethanamine], for which the Ki at human 5-HT2A receptor is 1.8 nM.

Consider `CNCc1cc(OCc2ccccc2C#N)n(CC2CCCC2)n1` [Example 162, 2-[({1-(cyclopentylmethyl)-3-[(methylamino)methyl]-1H-pyrazol-5-yl}oxy)methyl]benzonitrile], for which the Ki on human 5-HT2A receptor stood at 2.7 nM; in test [1], 7.8 nM. Take `CNCc1cc(OCc2ccccc2F)n(Cc2ccc(F)cc2)n1` [Example 218, 1-{1-(4-fluorobenzyl)-5-[(2-fluorobenzyl)oxy]-1H-pyrazol-3-yl}-N-methylmethanamine]: the Ki on human 5-HT2A receptor came to 1.2 nM. As to `CNCc1cc(OCc2cc(F)ccc2F)n(Cc2ccc(F)cc2)n1` [Example 219, 1-{5-[(2,5-difluorobenzyl)oxy]-1-(4-fluorobenzyl)-1H-pyrazol-3-yl}-N-methylmethanamine], the Ki at human 5-HT2A receptor (setting [2]) turned out to be 1.3 nM. In the case of `CNCc1cc(OCc2cc(F)ccc2F)n(Cc2ccc(Cl)cc2)n1` [Example 224, 1-{1-(4-chlorobenzyl)-5-[(2,5-difluorobenzyl)oxy]-1H-pyrazol-3-yl}-N-methylmethanamine], the Ki on human 5-HT2A receptor (setting [2]) came out at 1.2 nM; in test [1] it was 1.5 nM.

As for `CNCc1cc(OCc2cc(F)ccc2F)n(Cc2ccc(C)cc2)n1` [Example 230, 1-{5-[(2,5-difluorobenzyl)oxy]-1-(4-methylbenzyl)-1H-pyrazol-3-yl}-N-methylmethanamine], the Ki on human 5-HT2A receptor (setting [2]) worked out at 2.7 nM. Take `CNCc1cc(OCc2cc(Cl)ccc2F)n(CC(C)C)n1` [Example 256, 1-{5-[(5-chloro-2-fluorobenzyl)oxy]-1-(2-methylpropyl)-1H-pyrazol-3-yl}-N-methylmethanamine]: the Ki at human 5-HT2A receptor (setting [2]) turned out to be 4.5 nM. With `CNCc1cc(OCc2cc(Cl)ccc2F)n(CC(C)(C)C)n1` [Example 259, 1-{5-[(5-chloro-2-fluorobenzyl)oxy]-1-(2,2-dimethylpropyl)-1H-pyrazol-3-yl}-N-methylmethanamine], the Ki on human 5-HT2A receptor (setting [2]) turned out to be 7.5 nM. Take `CNCc1cc(OCc2cc(F)ccc2F)n(CCC(C)(C)C)n1` [Example 266, 1-{5-[(2,5-difluorobenzyl)oxy]-1-(3,3-dimethylbutyl)-1H-pyrazol-3-yl}-N-methylmethanamine]: the Ki on human 5-HT2A receptor (setting [2]) was found to be 0.65 nM. As to `CNCc1cc(OCc2cc(F)c(F)cc2F)n(CC2CCCC2)n1` [Example 280, 1-{1-(cyclopentylmethyl)-5-[(2,4,5-trifluorobenzyl)oxy]-1H-pyrazol-3-yl}-N-methylmethanamine], the Ki at human 5-HT2A receptor (setting [2]) came out at 1.3 nM.

Consider `CNCc1cc(OCc2cc(F)c(F)cc2F)n(CCC(C)(C)C)n1` [Example 284, 1-{1-(3,3-dimethylbutyl)-5-[(2,4,5-trifluorobenzyl)oxy]-1H-pyrazol-3-yl}-N-methylmethanamine], for which the Ki on human 5-HT2A receptor (setting [2]) was 1.8 nM.

In the case of `CNCc1cc(OCc2cc(F)c(F)cc2F)n(Cc2ccc(C)cc2)n1` [Example 286, N-methyl-1-{1-(4-methylbenzyl)-5-[(2,4,5-trifluorobenzyl)oxy]-1H-pyrazol-3-yl}methanamine], the Ki at human 5-HT2A receptor (setting [2]) was found to be 2.4 nM. As to `CNCc1cc(OCc2ccccc2)n(C(C)C2CCCC2)n1` (stereo not shown) [Example 288, 1-[5-(benzyloxy)-1-(1-cyclopentylethyl)-1H-pyrazol-3-yl]-N-methylmethanamine], the Ki at human 5-HT2A receptor is 5.2 nM.

As for `CNCc1cc(OCc2cc(Cl)ccc2F)n(C(C)C2CCCC2)n1` (stereo not shown) [Example 291, 1-{5-[(5-chloro-2-fluorobenzyl)oxy]-1-(1-cyclopentylethyl)-1H-pyrazol-3-yl}-N-methylmethanamine], the Ki on human 5-HT2A receptor (setting [2]) was determined as 2.5 nM; in test [1], 1.2 nM. Turning to `CNC(C)c1cc(OCc2cc(F)ccc2F)n(CCC2CCCC2)n1` (stereo not shown) [Example 315, 1-{1-(2-cyclopentylethyl)-5-[(2,5-difluorobenzyl)oxy]-1H-pyrazol-3-yl}-N-methylethanamine], the inhibition constant Ki on human 5-HT2A receptor (setting [2]) turned out to be 0.6 nM.

In the case of `CNCc1cc(OCc2ccccc2)n(C(CF)C2CCCCC2)n1` (stereo not shown) [Example 330, 1-[5-(benzyloxy)-1-(1-cyclohexyl-2-fluoroethyl)-1H-pyrazol-3-yl]-N-methylmethanamine], the Ki on human 5-HT2A receptor amounted to 2.8 nM. Take `CNCc1cc(OCc2cccc(Cl)c2)n(CC2CCc3ccccc3O2)n1` (stereo not shown) [Example 341, 1-{5-[(3-chlorobenzyl)oxy]-1-(3,4-dihydro-2H-chromen-2-ylmethyl)-1H-pyrazol-3-yl}-N-methylmethanamine]: the Ki at human 5-HT2A receptor amounted to 4.9 nM. As to `Fc1ccc(F)c(COc2cc(CNC3CC3)nn2CC2CCCCC2)c1` [Example 342, N-({1-(cyclohexylmethyl)-5-[(2,5-difluorobenzyl)oxy]-1H-pyrazol-3-yl}methyl)cyclopropanamine], the Ki on human 5-HT2A receptor (setting [2]) is 4.9 nM. Turning to `CNCc1cc(OC(F)(F)c2ccccc2)n(CC2CCCCC2)n1` [Example 349, 1-{1-(cyclohexylmethyl)-5-[difluoro(phenyl)methoxy]-1H-pyrazol-3-yl}-N-methylmethanamine], the Ki on human 5-HT2A receptor was found to be 6 nM. Consider `Cl.[2H]C([2H])(Oc1cc(CNC)nn1CC1CCCCC1)c1cc(F)ccc1F` [Example 497, 1-[1-(Cyclohexylmethyl)-5-{[(2,5-difluorophenyl) (^2H2)methyl]oxy}-1H-pyrazol-3-yl]-N-methylmethanamine Hydrochloride], for which the Ki at human 5-HT2A receptor (setting [2]) stood at 2.4 nM.
